Assay results from BindingDB's records for patent US20240025899 (Shanghai De Novo Pharmatech, 2024).
pIC50: −log10 of the molar value.

Molecular target: T1, Serine/threonine-protein kinase ATR [14-953] (Homo sapiens, UniProt Q13535)
T1 construct: 14-953
Assay: ATR Enzyme Assay
Experimental: In this experiment, the phosphorylation level of substrate protein P53 (Eurofins, 14-952) was detected by HTRF technology to measure the activity of ATR/ATRIP (Eurofins, 14-953) kinase. Reaction buffer (25 mM HEPES pH 8.0, 0.01% Brij-35, 1% Glycerol, 5 mM DTT, 1 mg/mL BSA), termination buffer (12.5 mM HEPES pH 8.0, 0.005% Brij-35, 0.5% Glycerol, 250 mM EDTA) and assay buffer (50 mM HEPES pH 7.0, 150 mM NaCl, 267 mM KF, 0.1% sodium cholate, 0.01% Tween 20) were prepared in advance. ATR/ATRIP was diluted with reaction buffer to a working solution of 2 ng/μL, and the substrate protein P53 was diluted with reaction buffer to a working solution of 80 nM, and […] (Sigma, A2383) working solution (containing 40 mM MnCl2) was prepared with reaction buffer. The compound was 3-fold diluted with DMSO, then diluted with reaction buffer into a working solution, then added to a 384-well plate at 2.5 μL/well, and centrifuged at 1500 rpm for 40 s. Then 2.5 μL of ATR/ATRIP working solution, P53 working solution and ATP working solution were added into the 384-well plate, centrifuged at 1500 rpm for 40 s and reacted at room temperature for 30 minutes.

T1 sequence (Q13535 14-953): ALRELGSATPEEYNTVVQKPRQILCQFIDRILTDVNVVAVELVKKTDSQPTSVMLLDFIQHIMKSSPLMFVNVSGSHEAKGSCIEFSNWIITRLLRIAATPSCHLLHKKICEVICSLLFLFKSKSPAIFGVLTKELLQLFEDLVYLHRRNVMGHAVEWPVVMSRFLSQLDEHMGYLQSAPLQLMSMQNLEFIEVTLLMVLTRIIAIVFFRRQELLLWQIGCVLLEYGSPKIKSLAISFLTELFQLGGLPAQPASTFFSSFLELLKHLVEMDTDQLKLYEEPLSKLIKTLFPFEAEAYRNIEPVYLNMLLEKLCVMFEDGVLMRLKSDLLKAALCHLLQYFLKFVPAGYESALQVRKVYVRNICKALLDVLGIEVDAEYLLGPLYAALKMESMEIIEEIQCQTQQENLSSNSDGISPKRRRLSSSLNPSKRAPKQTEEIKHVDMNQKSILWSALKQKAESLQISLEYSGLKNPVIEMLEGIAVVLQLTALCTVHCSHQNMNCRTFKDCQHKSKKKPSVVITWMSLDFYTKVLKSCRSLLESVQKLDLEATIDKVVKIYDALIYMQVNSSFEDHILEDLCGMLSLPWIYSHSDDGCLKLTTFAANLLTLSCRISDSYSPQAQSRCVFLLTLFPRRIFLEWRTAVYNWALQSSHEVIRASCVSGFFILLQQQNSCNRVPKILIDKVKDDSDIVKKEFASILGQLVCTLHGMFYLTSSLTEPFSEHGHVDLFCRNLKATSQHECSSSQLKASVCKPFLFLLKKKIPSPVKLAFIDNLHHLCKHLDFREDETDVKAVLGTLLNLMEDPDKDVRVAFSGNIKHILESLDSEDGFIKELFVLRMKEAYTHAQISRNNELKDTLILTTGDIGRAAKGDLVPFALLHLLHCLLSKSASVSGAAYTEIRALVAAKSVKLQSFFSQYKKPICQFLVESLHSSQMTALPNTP

Row | pIC50 | Compound
1 | 7.85 | C[C@@H]1COCCN1c1nc2c(cnn2-c2cc[nH]n2)c2c1CCN2C [US20240025899, Compound 12]
2 | 8.19 | C[C@@H]1COCCN1c1nc2c(cnn2-c2cc[nH]n2)c2c1CCN2S(N)(=O)=O [US20240025899, Compound 5]
